Assays:
Experiment in all cases: relative viability (nuclei count vs DMSO), 5 days (fraction); higher = more cells survive
NCI-H23 = tested on: NCI-H23
Summary of the method: (§1)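 The day after seeding in 1536-well plates, lung cancer cell lines were treated by pin tool with a single drug, or with a fixed anchor-drug dose together with five library-drug doses (not always all listed) in √10 steps. After 5 days, a combined fix-and-stain solution (final 0.05% Triton X-100, 1% formaldehyde, 1 ug/ml Hoechst) was added. Nuclei counted on 4× images gave relative viability as treated counts over vehicle counts, reported as the median of duplicate plates.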

EPLC-272H = tested on: EPLC-272H
Summary of the method: as §1

H3255 = tested on: H3255
Summary of the method: as §1

PC-14 = tested on: PC-14
Summary of the method: as §1

201T = tested on: 201T
Summary of the method: as §1

COR-L 105 = tested on: COR-L 105
Summary of the method: as §1

NCI-H2126 = tested on: NCI-H2126
Summary of the method: as §1

NCI-H2347 = tested on: NCI-H2347
Summary of the method: as §1

NCI-H520 = tested on: NCI-H520
Summary of the method: as §1

HCC-78 = tested on: HCC-78
Summary of the method: as §1

LCLC-97TM1 = tested on: LCLC-97TM1
Summary of the method: as §1

NCI-H1915 = tested on: NCI-H1915
Summary of the method: as §1

NCI-H1666 = tested on: NCI-H1666
Summary of the method: as §1

NCI-H2405 = tested on: NCI-H2405
Summary of the method: as §1

NCI-H647 = tested on: NCI-H647
Summary of the method: as §1

LC-2-ad = tested on: LC-2-ad
Summary of the method: as §1

NCI-H2087 = tested on: NCI-H2087
Summary of the method: as §1

NCI-H650 = tested on: NCI-H650
Summary of the method: as §1

RERF-LC-KJ = tested on: RERF-LC-KJ
Summary of the method: as §1

HCC-827 = tested on: HCC-827
Summary of the method: as §1

NCI-H661 = tested on: NCI-H661
Summary of the method: as §1

Nc1ccn([C@@H]2O[C@H](CO)[C@@H](O)[C@@H]2O)c(=O)n1 [Cytarabine] + Cc1nc(NC(=O)N2CCC[C@H]2C(N)=O)sc1-c1ccnc(C(C)(C)C(F)(F)F)c1 [Alpelisib] (partner 2 µM)
relative viability (NCI-H23; first compound 0.005 µM): 0.575 | relative viability (NCI-H23; first compound 0.01581 µM): 0.547 | relative viability (NCI-H23; first compound 0.05 µM): 0.373 | relative viability (NCI-H23; first compound 0.1581 µM): 0.195 | relative viability (NCI-H23; first compound 0.5 µM): 0.127 | relative viability (EPLC-272H; first compound 0.005 µM): 0.7 | relative viability (EPLC-272H; first compound 0.01581 µM): 0.781 | relative viability (EPLC-272H; first compound 0.05 µM): 0.609 | relative viability (EPLC-272H; first compound 0.1581 µM): 0.345 | relative viability (EPLC-272H; first compound 0.5 µM): 0.337 | relative viability (H3255; first compound 0.005 µM): 0.757 | relative viability (H3255; first compound 0.01581 µM): 0.673 | relative viability (H3255; first compound 0.05 µM): 0.566 | relative viability (H3255; first compound 0.1581 µM): 0.524 | relative viability (H3255; first compound 0.5 µM): 0.469 | relative viability (PC-14; first compound 0.005 µM): 0.838 | relative viability (PC-14; first compound 0.01581 µM): 1.13 | relative viability (PC-14; first compound 0.05 µM): 1.05 | relative viability (PC-14; first compound 0.1581 µM): 0.512 | relative viability (PC-14; first compound 0.5 µM): 0.357 | relative viability (201T; first compound 0.005 µM): 0.999 | relative viability (201T; first compound 0.01581 µM): 0.983 | relative viability (201T; first compound 0.05 µM): 1.02 | relative viability (201T; first compound 0.1581 µM): 0.887 | relative viability (201T; first compound 0.5 µM): 0.872 | relative viability (COR-L 105; first compound 0.005 µM): 0.86 | relative viability (COR-L 105; first compound 0.01581 µM): 1.07 | relative viability (COR-L 105; first compound 0.05 µM): 0.675 | relative viability (COR-L 105; first compound 0.1581 µM): 0.444 | relative viability (COR-L 105; first compound 0.5 µM): 0.355 | relative viability (NCI-H2126; first compound 0.005 µM): 0.765 | relative viability (NCI-H2126; first compound 0.01581 µM): 0.597 | relative viability (NCI-H2126; first compound 0.05 µM): 0.694 | relative viability (NCI-H2126; first compound 0.1581 µM): 0.564 | relative viability (NCI-H2126; first compound 0.5 µM): 0.408 | relative viability (NCI-H2347; first compound 0.005 µM): 1.22 | relative viability (NCI-H2347; first compound 0.01581 µM): 0.964 | relative viability (NCI-H2347; first compound 0.05 µM): 0.868 | relative viability (NCI-H2347; first compound 0.1581 µM): 0.691 | relative viability (NCI-H2347; first compound 0.5 µM): 0.663 | relative viability (NCI-H520; first compound 0.005 µM): 0.697 | relative viability (NCI-H520; first compound 0.01581 µM): 0.754 | relative viability (NCI-H520; first compound 0.05 µM): 0.858 | relative viability (NCI-H520; first compound 0.1581 µM): 0.688 | relative viability (NCI-H520; first compound 0.5 µM): 0.447 | relative viability (HCC-78; first compound 0.005 µM): 0.41 | relative viability (HCC-78; first compound 0.01581 µM): 0.298 | relative viability (HCC-78; first compound 0.05 µM): 0.281 | relative viability (HCC-78; first compound 0.1581 µM): 0.185 | relative viability (HCC-78; first compound 0.5 µM): 0.202 | relative viability (LCLC-97TM1; first compound 0.005 µM): 0.235 | relative viability (LCLC-97TM1; first compound 0.01581 µM): 0.124 | relative viability (LCLC-97TM1; first compound 0.1581 µM): 0.101 | relative viability (LCLC-97TM1; first compound 0.5 µM): 0.0953 | relative viability (NCI-H1915; first compound 0.005 µM): 1.04 | relative viability (NCI-H1915; first compound 0.01581 µM): 0.915 | relative viability (NCI-H1915; first compound 0.05 µM): 0.851 | relative viability (NCI-H1915; first compound 0.1581 µM): 0.493 | relative viability (NCI-H1915; first compound 0.5 µM): 0.394 | relative viability (NCI-H1666; first compound 0.005 µM): 0.751 | relative viability (NCI-H1666; first compound 0.01581 µM): 0.855 | relative viability (NCI-H1666; first compound 0.05 µM): 0.647 | relative viability (NCI-H1666; first compound 0.1581 µM): 0.279 | relative viability (NCI-H1666; first compound 0.5 µM): 0.35 | relative viability (NCI-H2405; first compound 0.005 µM): 0.771 | relative viability (NCI-H2405; first compound 0.01581 µM): 0.657 | relative viability (NCI-H2405; first compound 0.05 µM): 0.512 | relative viability (NCI-H2405; first compound 0.1581 µM): 0.527 | relative viability (NCI-H2405; first compound 0.5 µM): 0.301 | relative viability (NCI-H647; first compound 0.005 µM): 0.491 | relative viability (NCI-H647; first compound 0.01581 µM): 0.356 | relative viability (NCI-H647; first compound 0.05 µM): 0.142 | relative viability (NCI-H647; first compound 0.1581 µM): 0.086 | relative viability (NCI-H647; first compound 0.5 µM): 0.0694 | relative viability (LC-2-ad; first compound 0.005 µM): 0.898 | relative viability (LC-2-ad; first compound 0.01581 µM): 0.785 | relative viability (LC-2-ad; first compound 0.05 µM): 0.802 | relative viability (LC-2-ad; first compound 0.1581 µM): 0.441 | relative viability (LC-2-ad; first compound 0.5 µM): 0.228 | relative viability (NCI-H2087; first compound 0.005 µM): 0.962 | relative viability (NCI-H2087; first compound 0.01581 µM): 1.1 | relative viability (NCI-H2087; first compound 0.05 µM): 0.899 | relative viability (NCI-H2087; first compound 0.1581 µM): 0.666 | relative viability (NCI-H2087; first compound 0.5 µM): 0.452 | relative viability (NCI-H650; first compound 0.005 µM): 0.732 | relative viability (NCI-H650; first compound 0.01581 µM): 0.81 | relative viability (NCI-H650; first compound 0.05 µM): 0.468 | relative viability (NCI-H650; first compound 0.1581 µM): 0.218 | relative viability (NCI-H650; first compound 0.5 µM): 0.224 | relative viability (RERF-LC-KJ; first compound 0.005 µM): 0.742 | relative viability (RERF-LC-KJ; first compound 0.01581 µM): 0.657 | relative viability (RERF-LC-KJ; first compound 0.05 µM): 0.864 | relative viability (RERF-LC-KJ; first compound 0.1581 µM): 0.499 | relative viability (RERF-LC-KJ; first compound 0.5 µM): 0.36 | relative viability (HCC-827; first compound 0.005 µM): 0.697 | relative viability (HCC-827; first compound 0.01581 µM): 0.448 | relative viability (HCC-827; first compound 0.05 µM): 0.467 | relative viability (HCC-827; first compound 0.1581 µM): 0.242 | relative viability (HCC-827; first compound 0.5 µM): 0.197 | relative viability (NCI-H661; first compound 0.005 µM): 0.811 | relative viability (NCI-H661; first compound 0.01581 µM): 0.733 | relative viability (NCI-H661; first compound 0.05 µM): 0.405 | relative viability (NCI-H661; first compound 0.1581 µM): 0.24 | relative viability (NCI-H661; first compound 0.5 µM): 0.214
